Tested on: Formosan subterranean termites
Assay: In-field marking and control, bait at infested trees, sites 1 and 2
Type: in vivo
Settings: for Bait consumption: 250 ppm bait
From the text: Formosan subterranean termite and native subterranean termite infested trees (Water Oaks and Legastrums) in New Orleans, La. were chosen for this study. Three sites were selected located at the Southern Regional Research Center campus. Site 1 was located near the service building next to an old water oak tree, site 2 was located in the compound area near ligastrum trees, and site 3 near ligastrum trees outside the compound area. Sites 1 and 2 were active with Formosan subterranean termites and site 3 with Eastern subterranean termites.
The colored bait matrix at 250 ppm was encapsulated as described above and placed directly in the base of the trees where termites were foraging, making sure that the encapsulated colored bait matrix was covered with soil or with a piece of wood or brick on top of it to prevent desiccation. The bait was periodically inspected for consumption and termite activity. The field study started in early August and was completed by the end of the following June. During winter (December-February) termite activity decreased considerably, but by April termite activity and foraging resumed and the blue colored matrix was replaced by bait formulation containing 250 ppm of chitin synthesis inhibitors to kill the colonies. Diflubenzuron was used in 2 of the sites and chlorfluazuron was used in the remaining site.

CCCCC(CC)CNc1ccc(NCC(CC)CCCC)c2c1C(=O)c1ccccc1C2=O (stereo not drawn) [Calco oil blue V, 9,10-anthracenedione, 1,4-bis[(2-ethylhexyl)amino]]
Bait consumption (Site 1 (Water Oak), day 7): 0 g | Bait consumption (Site 1 (Water Oak), day 14): 150 g | Bait consumption (Site 1 (Water Oak), day 21): 350 g | Bait consumption (Site 1 (Water Oak), day 27): 400 g | Bait consumption (Site 1 (Water Oak), day 46): 400 g | Bait consumption (Site 1 (Water Oak), day 56): 100 g | Bait consumption (Site 1 (Water Oak), day 73): 0 g | Bait consumption (Site 1 (Water Oak), day 83): 0 g | Bait consumption (Site 1 (Water Oak), day 102): 0 g | Bait consumption (Site 1 (Water Oak), day 159): 0 g | Bait consumption (Site 1 (Water Oak), day 221): 0 g | Bait consumption (Site 1 (Water Oak), day 251): 0 g | Bait consumption (Site 1 (Water Oak), day 281): 0 g | Bait consumption (Site 2 (Ligastrum), day 7): 0 g | Bait consumption (Site 2 (Ligastrum), day 14): 200 g | Bait consumption (Site 2 (Ligastrum), day 21): 450 g | Bait consumption (Site 2 (Ligastrum), day 27): 300 g | Bait consumption (Site 2 (Ligastrum), day 46): 250 g | Bait consumption (Site 2 (Ligastrum), day 56): 350 g | Bait consumption (Site 2 (Ligastrum), day 73): 250 g | Bait consumption (Site 2 (Ligastrum), day 83): 300 g | Bait consumption (Site 2 (Ligastrum), day 102): 400 g | Bait consumption (Site 2 (Ligastrum), day 159): 200 g | Bait consumption (Site 2 (Ligastrum), day 221): 0 g | Bait consumption (Site 2 (Ligastrum), day 251): 0 g | Bait consumption (Site 2 (Ligastrum), day 281): 0 g | time termite workers remained visibly colored after removing the blue colored bait formulation (field, 250 ppm): 1 week | marking of termites after feeding on colored bait matrix (field, 250 ppm colored bait matrix without diflubenzuron): visibly colored blue | period to eliminate the colonies (field, calco oil blue bait followed by bait with 250 ppm chitin synthesis inhibitors): 2 months | effect on termite colonies and termite activity (field, matrix with calco oil blue V alone, 250 ppm): did not kill the termite colonies nor reduce termite activity

— US7628979B1, “Use of calco oil blue V in bait formulations for marking and controlling subterranean termites” (The United States of America as represented by the …, priority 2005, dated 2009)
